# According to ChEMBL document CHEMBL1201862, “PubChem BioAssay data set” (2004):
# Calls of active or inactive are those of the source.
# How the values were obtained:
# [1] = insulin promoter down-regulators in MIN6 cells, imaging, high-content screening, mouse beta cells (AID 1628); assay type: functional
# Protein RecA = target: T1, Protein RecA (Mycobacterium tuberculosis, UniProt P9WHJ3); experiment: Fluorescence Cell-Free Homogeneous Dose Retest to Identify Inhibitors of RecA-Intein Splicing Activity. [Related pubchem assays (depositor defined):AID2097, AID2223, AID489010, AID492950]; assay type: functional
# T1 sequence (P9WHJ3 whole entry): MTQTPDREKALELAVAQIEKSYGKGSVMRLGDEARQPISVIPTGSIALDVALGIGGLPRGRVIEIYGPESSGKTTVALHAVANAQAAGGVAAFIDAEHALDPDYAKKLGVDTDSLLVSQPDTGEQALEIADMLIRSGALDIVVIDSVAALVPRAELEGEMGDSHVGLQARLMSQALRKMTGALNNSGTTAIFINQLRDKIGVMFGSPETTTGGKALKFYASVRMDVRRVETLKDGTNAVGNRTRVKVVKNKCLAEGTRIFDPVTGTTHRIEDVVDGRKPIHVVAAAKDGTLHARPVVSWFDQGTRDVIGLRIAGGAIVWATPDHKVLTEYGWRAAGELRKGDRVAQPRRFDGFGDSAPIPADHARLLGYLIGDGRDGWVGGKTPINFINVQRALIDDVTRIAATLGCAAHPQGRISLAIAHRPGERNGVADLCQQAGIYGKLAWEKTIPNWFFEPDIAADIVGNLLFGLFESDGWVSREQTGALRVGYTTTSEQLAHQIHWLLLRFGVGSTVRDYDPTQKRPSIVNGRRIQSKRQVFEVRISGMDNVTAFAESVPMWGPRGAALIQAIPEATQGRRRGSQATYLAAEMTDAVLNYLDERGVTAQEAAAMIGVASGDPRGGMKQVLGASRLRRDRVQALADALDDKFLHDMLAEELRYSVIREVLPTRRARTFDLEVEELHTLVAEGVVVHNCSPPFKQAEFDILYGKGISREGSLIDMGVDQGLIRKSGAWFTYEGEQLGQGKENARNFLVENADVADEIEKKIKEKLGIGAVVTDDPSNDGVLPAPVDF
# INS1 = experiment: beta cell apoptosis inhibitors, cytokine rescue, dose response, luminescence, retest (AID 449756); assay type: functional, cell-based; conditions: Rattus norvegicus;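 further: cell death triggered by IL-1 beta plus TNF-alpha plus IFN-gamma mixture; protective hits raise ATP signal compared with cytokine alone wells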
# [2] = cytotoxicity in MIN6 insulinoma cells, dose response, cytotoxicity control, cell-based, mouse insulinoma (AID 2122); assay type: functional;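 further: confirmatory high-throughput counterscreen run to flag cytotoxic compounds; mouse MIN-6 beta cells carrying an insulin promoter eGFP reporter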
# [3] = growth suppression of beta-catenin-knockout colon cells, dose response, cell-based, HCT116, human colon tumor (AID 1045); assay type: functional;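 further: HCT116 colon tumor cells with beta catenin knocked out; cells exposed to compound for 60 hours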
# [4] = target: Glucose-6-phosphate 1-dehydrogenase (Homo sapiens, UniProt P11413); experiment: human G6PD enzyme inhibitors, dose response, selectivity assay for P. falciparum G6PD inhibitor project, biochemical, fluorescence (AID 504792); assay type: functional
# [5] = growth suppression of PTEN-null colon cells, dose response, cell-based, HCT116 PTEN knockout (AID 1047); assay type: functional;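 further: HCT116 colon tumor cells with PTEN knocked out; cells exposed to compound for 60 hours before readout; potency for loss of cell viability measured by luminescence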
# Streptokinase A = target: T2, Streptokinase A (Streptococcus pyogenes serotype M1, UniProt P10520); experiment: S. pyogenes streptokinase expression inhibitors, potency, dose response, plasminogen activation absorbance, OD405 (AID 1914); assay type: functional, Streptococcus pyogenes M1 GAS;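 further: secreted streptokinase activity via plasminogen activation per viability signal from cell pellet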
# T2 sequence (P10520 whole entry): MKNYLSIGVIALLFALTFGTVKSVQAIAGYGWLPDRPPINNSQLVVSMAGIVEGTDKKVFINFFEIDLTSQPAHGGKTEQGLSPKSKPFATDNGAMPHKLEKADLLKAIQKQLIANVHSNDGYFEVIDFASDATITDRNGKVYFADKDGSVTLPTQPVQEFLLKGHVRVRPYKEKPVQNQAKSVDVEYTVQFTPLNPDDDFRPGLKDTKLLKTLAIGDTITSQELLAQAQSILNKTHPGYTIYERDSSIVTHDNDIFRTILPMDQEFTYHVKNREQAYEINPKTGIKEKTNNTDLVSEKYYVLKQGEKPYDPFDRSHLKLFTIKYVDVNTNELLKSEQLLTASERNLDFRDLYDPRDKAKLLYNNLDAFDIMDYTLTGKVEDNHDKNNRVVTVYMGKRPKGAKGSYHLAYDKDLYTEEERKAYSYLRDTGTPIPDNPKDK
# [6] = target: T3, Replicative DNA helicase DnaB (Mycobacterium tuberculosis, UniProt P9WMR3); experiment: DnaB intein splicing inhibitors, dose response, biochemical, cell-free fluorescence (AID 449749); assay type: functional
# T3 sequence (P9WMR3 whole entry): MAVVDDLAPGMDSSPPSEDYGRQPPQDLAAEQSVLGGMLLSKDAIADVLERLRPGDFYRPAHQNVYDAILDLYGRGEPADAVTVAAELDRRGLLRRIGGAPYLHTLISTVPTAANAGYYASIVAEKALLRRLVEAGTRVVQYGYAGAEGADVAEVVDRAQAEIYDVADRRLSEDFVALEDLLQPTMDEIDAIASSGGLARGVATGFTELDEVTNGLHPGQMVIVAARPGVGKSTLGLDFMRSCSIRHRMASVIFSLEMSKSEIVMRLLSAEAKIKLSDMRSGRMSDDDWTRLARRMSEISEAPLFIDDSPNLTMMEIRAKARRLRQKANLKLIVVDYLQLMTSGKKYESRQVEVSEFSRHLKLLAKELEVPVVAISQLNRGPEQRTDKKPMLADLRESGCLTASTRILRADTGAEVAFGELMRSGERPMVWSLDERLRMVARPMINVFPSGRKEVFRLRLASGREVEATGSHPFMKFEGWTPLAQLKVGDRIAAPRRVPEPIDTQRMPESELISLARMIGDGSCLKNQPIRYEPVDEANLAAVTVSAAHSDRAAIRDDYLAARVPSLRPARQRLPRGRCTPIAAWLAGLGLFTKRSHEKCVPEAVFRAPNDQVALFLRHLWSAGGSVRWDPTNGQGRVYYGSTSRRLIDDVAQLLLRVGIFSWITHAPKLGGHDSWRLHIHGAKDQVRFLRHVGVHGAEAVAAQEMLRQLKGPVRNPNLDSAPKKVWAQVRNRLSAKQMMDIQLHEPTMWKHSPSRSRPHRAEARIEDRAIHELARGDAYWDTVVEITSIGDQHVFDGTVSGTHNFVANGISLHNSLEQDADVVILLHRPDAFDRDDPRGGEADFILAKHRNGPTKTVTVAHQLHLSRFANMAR
# Glucose-6-phosphate 1-dehydrogenase, sequence (P11413 whole entry): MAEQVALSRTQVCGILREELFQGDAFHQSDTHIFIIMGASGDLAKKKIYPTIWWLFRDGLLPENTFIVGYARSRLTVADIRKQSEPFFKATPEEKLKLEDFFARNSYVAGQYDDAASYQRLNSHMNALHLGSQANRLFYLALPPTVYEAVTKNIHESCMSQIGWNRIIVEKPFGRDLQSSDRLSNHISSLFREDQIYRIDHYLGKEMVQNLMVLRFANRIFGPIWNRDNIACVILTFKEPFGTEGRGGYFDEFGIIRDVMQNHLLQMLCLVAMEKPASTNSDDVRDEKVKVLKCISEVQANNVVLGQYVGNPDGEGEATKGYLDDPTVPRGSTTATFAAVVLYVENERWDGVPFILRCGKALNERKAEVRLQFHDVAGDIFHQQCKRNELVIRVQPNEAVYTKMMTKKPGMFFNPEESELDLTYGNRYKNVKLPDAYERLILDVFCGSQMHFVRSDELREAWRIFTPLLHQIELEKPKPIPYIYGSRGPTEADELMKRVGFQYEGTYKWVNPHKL
compound,measurement,setting,value
COc1ccc(C(=O)c2c(C(F)(F)F)oc3c2C(=O)c2ccccc2C3=O)cc1,IC50,[1],3050 nM (active)
same,EC50,Protein RecA,82.5 nM (active)
same,AC50,INS1,1380 nM (active)
same,IC50,[2],2390 nM (active)
same,EC50,[3],2550 nM (active)
same,IC50,[4],> 80000 nM (inactive)
same,EC50,[5],2810 nM (active)
same,EC50,Streptokinase A,> 150000 nM (not active)
same,AC50,[6],164 nM (active)
